Experimental data reported in patent publication US20110245179A1, “Composition for Prevention or Treatment of Heart Failure” (priority 2008, published 2011).

Key:
PKCδ = PKCδ (Homo sapiens, UniProt Q05655); conditions: cited from earlier work
PKCβ = PKCβ (Homo sapiens, UniProt P05771); conditions: cited from earlier work
cardiac myocytes = test: Measurement of myocardial contractility (video-based edge detection); type: cell-based, Sprague-Dawley (SD) rat; conditions: 100 nM for 30 minutes
Description: The sequence of a peptide inhibitor was designed based on the experiment of Daria Mochly-Rosen^11-13. The amino acid sequences of the protein kinase C ζ (PKCζ) inhibitor are described as SEQ ID NO: 1 and SEQ ID NO: 2. They are called the pseudosubstrate region. In contrast, the amino acid sequence of the PKCα inhibitor is QLVIAN. Each peptide inhibitor is linked at the amino-end with the TAT peptide YGRKKRRQRRR via the GGG bridge. As a normal group for comparison, a peptide comprising the TAT amino acid sequence was used. Cardiac myocytes isolated from 10-week-old Sprague-Dawley (SD) rat were used to test the efficiency of the peptide inhibitor. […]
The cardiac myocytes were isolated based on the modification of the Ren's method^14. 10-week-old male SD rats (250-300 g) were used for the experiment. After injecting heparin (50 unit), the test animal was anesthetized with isoflurane and the heart was taken out immediately. The heart was connected to a pump and Tyrode's buffer [137 mM NaCl, 5.4 mM KCl, 1 mM MgCl2, 10 mM glucose, 10 mM HEPES, 10 mM 2,3-butanedione monoxime and 5 mM taurine (Sigma), pH 7.4] at 37° C. was supplied through the coronary artery. After removing blood from the heart by pumping for 5 minutes, intercellular adhesion molecules were digested by perfusing enzyme solution [collagenase type B (0.35 U/mL, Roche), hyaluronidase (0.1 mg/mL, Sigma)] through the coronary artery. After sufficient digestion through perfusion for 20 minutes, the heart was stabilized and protected from the enzymes in 0.5% BSA solution. In all the experiments, only the rod-shaped, healthy cardiac myocytes with a distinct striation pattern were used.
The entire culture procedure was carried out in a class II flow hood. Culture dishes were precoated for 1 hour with 40 µg/mL mouse laminin (BD Biosciences) at room temperature. The isolated cardiac myocytes were cultured in Dulbecco's minimal essential medium (HyClone) containing 50 units/mL penicillin, 50 μg/mL streptomycin, 5 mM taurine, […] and […]. The cardiac myocytes were stabilized for 2 hours in a 5% CO2 incubator at 37° C., and then myocardial contractility was measured.
Myocardial contractility was measured using a video-based edge detection system (IonOptix; Milton, Mass.)^15. The cultured cardiac myocytes were placed on a over slip and observed under an inverted microscope (Nikon Eclipse TE-100F). To the cardiac myocytes, Tyrode's buffer (137 mM NaCl, 5.4 mM KCl, 1 mM MgCl2, 10 mM glucose and 10 mM HEPES, pH 7.4) was continuously supplied (at 37° C., at a rate of ˜1 mL/min). The cells were stimulated with a voltage of 30 V at 1 Hz. A STIM-AT stimulator/thermostat was used. […] The motion was recorded at every 8.3 ms. The recorded motion of the cardiac myocytes was analyzed with the soft-edge software (IonOptix).

PKCζ = biological target: T1, PKCζ (Homo sapiens, UniProt Q05513); conditions: cited from earlier work
T1 sequence (Q05513 1-592): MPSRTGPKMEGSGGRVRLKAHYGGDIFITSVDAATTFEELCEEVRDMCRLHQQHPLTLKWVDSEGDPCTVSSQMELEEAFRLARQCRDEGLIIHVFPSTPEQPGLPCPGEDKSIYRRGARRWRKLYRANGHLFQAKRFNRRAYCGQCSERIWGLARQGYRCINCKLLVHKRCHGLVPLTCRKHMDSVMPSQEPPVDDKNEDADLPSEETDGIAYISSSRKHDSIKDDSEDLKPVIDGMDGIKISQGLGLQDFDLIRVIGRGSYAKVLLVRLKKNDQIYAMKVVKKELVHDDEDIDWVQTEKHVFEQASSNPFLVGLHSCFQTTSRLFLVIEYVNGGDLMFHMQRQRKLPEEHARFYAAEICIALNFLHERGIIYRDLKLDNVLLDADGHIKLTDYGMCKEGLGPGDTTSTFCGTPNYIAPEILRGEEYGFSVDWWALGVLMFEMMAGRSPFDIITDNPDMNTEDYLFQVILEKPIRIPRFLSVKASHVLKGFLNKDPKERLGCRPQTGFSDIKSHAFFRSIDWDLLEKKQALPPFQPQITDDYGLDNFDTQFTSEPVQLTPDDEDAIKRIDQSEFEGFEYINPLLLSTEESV

Chain of PKCδ (Q05655 whole entry): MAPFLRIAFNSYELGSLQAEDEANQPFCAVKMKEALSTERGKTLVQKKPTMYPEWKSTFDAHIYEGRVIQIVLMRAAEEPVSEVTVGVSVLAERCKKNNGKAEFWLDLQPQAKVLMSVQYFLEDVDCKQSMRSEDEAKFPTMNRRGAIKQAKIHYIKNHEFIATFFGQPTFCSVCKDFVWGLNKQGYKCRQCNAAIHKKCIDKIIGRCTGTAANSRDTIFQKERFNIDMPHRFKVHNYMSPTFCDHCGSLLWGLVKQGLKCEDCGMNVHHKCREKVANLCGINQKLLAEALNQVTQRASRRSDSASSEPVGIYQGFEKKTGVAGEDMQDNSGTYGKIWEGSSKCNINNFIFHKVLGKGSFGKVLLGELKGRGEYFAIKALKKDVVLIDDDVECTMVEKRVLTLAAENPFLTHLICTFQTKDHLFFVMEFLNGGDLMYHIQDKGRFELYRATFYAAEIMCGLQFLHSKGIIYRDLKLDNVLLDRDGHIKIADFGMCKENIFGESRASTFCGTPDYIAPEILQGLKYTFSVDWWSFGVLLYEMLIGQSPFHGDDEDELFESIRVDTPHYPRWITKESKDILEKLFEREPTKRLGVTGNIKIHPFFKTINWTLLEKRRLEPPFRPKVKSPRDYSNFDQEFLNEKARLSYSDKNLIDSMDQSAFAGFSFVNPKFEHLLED
Chain of PKCβ (P05771 whole entry, species assumed): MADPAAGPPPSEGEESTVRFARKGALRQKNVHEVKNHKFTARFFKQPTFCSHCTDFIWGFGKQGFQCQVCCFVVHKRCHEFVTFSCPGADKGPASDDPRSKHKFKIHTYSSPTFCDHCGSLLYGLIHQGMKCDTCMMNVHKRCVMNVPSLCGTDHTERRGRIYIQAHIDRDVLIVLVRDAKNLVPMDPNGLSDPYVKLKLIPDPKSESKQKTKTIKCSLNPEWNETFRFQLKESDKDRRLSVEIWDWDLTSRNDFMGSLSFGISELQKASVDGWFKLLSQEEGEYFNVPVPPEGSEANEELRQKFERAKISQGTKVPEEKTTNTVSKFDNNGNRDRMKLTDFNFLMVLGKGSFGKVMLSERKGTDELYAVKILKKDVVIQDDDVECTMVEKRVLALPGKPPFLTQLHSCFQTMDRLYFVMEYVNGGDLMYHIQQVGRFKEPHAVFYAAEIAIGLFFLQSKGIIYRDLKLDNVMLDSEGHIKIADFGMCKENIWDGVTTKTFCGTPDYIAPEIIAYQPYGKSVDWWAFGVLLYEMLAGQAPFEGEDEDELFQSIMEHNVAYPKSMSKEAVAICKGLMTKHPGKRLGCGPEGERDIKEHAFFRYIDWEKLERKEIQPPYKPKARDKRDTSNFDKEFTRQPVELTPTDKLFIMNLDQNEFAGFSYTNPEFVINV

Structure (SMILES)	IC50 (PKCδ) [µM]	IC50 (PKCβ) [µM]	increase of maximal rate of contraction (cardiac myocytes) [times]	increase of maximal rate of relaxation (cardiac myocytes) [times]	increased maximal myocardial contractility as compared to the normal group (cardiac myocytes)	other results
CCOC(=O)c1c(NC(C)=O)sc(/C(C)=N/O)c1-c1ccccc1 [Chemical Formula II, ethyl (5E)-2-acetylimino-5-[1-(hydroxyamino)ethylidene]-4-phenyl-thiophene-3-carboxylate]	> 100	> 100				
CN1CCN(c2cccc3[nH]c(-c4n[nH]c5cc(-c6ccc(CN)cc6)ccc45)nc23)CC1 [Chemical Formula X]			1.2	1.2	about 1.4 times	
CN1CCN(c2cccc3[nH]c(-c4n[nH]c5cc(-c6ccc(N)cc6)ccc45)nc23)CC1 [Chemical Formula IX]			≥ 2	≥ 2	about 2.4 times	
CN1CCN(Cc2c3ccccc3cc3ccccc23)CC1 [Chemical Formula III, 1-(anthracen-9-ylmethyl)-4-methyl-piperazine]	> 100	50				IC50 (PKCζ): 25 µM
CCOC(=O)c1c(NC(=S)N2CCN(S(C)(=O)=O)CC2)sc(C)c1-c1ccccc1 [Chemical Formula IV]						inhibitory effect relative to that of the compound of Chemical Formula II (PKCζ; tested at 100 μM): about 1.2 times
